16 compounds from PubChem BioAssay AID328 (DTP/NCI, 2004) can be followed below.

The assay deals with BDF1 mice, P388 leukemia ip, median survival T/C. In words: NCI In Vivo Anticancer Drug Screen. Data for tumor model P388 Leukemia (intraperitoneal) in B6D2F1 (BDF1) mice. The note with it: endpoint: median survival time, higher = longer survival. In a few lines: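 Antitumour effect was judged in vivo: survival in drug-treated mice, normalised to that of vehicle-dosed controls, gives the reported T/C.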

Where [1] appears, read: dose: 100.0 mg/kg/injection, schedule: Q01DX001 (ip), vehicle: saline with Tween-80.
Setting [2] is: dose: 100.0 mg/kg/injection, schedule: Q01DX009 (ip), vehicle: saline with Tween-80.
Where [3] appears, read: dose: 200.0 mg/kg/injection, schedule: Q01DX009 (ip), vehicle: saline with Tween-80.
Where [4] appears, read: dose: 100.0 mg/kg/injection, schedule: Q04DX003 (ip), vehicle: saline with Tween-80.
The mark [5] stands for this setting: dose: 400.0 mg/kg/injection, schedule: Q04DX003 (ip), vehicle: saline with Tween-80.
[6] abbreviates: dose: 400.0 mg/kg/injection, schedule: Q01DX009 (ip), vehicle: saline with Tween-80.

Structures are written as SMILES. Values joined by “and” are separate entries in the source; they are usually repeats but may differ in a detail not shown here. Equal values may be shown once. Toxic doses and inconclusive results are not listed.

Regarding `COC1=C(OC)C(=O)C2=C(OCCO2)C1=O`, the T/C under setting [1] was 104 % of control.

As to `[Cl][Cr]([Cl])[Cl].[NH-]CC[N-]CC[NH-]`, the T/C (dose: 50.0 mg/kg/injection, schedule: Q01DX009 (ip), vehicle: saline with Tween-80) is 116 % of control; the T/C under setting [2] was 100 % of control; the T/C under setting [3] was 100 % of control.

Turning to `Cc1nc2c(=O)[nH]n(C)c2nc1C`, the T/C was 97 % of control under setting [2]; 95 % of control under setting [4]; 97 % of control under setting [3]; 94 % of control (dose: 200.0 mg/kg/injection, schedule: Q04DX003 (ip), vehicle: saline with Tween-80); 99 % of control under setting [5].

`COc1cc(Br)cc(C(=O)O)c1OC`: the T/C is 96 % of control (dose: 50.0 mg/kg/injection, schedule: Q01DX009 (ip), vehicle: distilled water + Tween-80) and 88 % of control (dose: 100.0 mg/kg/injection, schedule: Q01DX009 (ip), vehicle: distilled water + Tween-80).

With `COC(=O)C(I)C(OC)c1ccccc1` (centres undefined), the T/C is 100 % of control under setting [2], 105 % of control under setting [3] and 110 % of control under setting [6].

As to `C[C@]12CC[C@@H]3c4ccc(OC(=O)Cc5ccc(N(CCCl)CCCl)cc5)cc4CC[C@H]3[C@@H]1CC[C@@H]2OC(=O)Cc1ccc(N(CCCl)CCCl)cc1`, the T/C is, setting by setting: (dose: 64.0 mg/kg/injection, schedule: Q01DX009 (ip), vehicle: Klucel (hydroxypropylcellulose) (HPC)) 95 % of control and 105 % of control; under setting [2], 118 % of control; (dose: 128.0 mg/kg/injection, schedule: Q01DX009 (ip), vehicle: Klucel (hydroxypropylcellulose) (HPC)) 98 % of control and 123 % of control; (dose: 256.0 mg/kg/injection, schedule: Q01DX009 (ip), vehicle: Klucel (hydroxypropylcellulose) (HPC)) 111 % of control; (dose: 264.0 mg/kg/injection, schedule: Q04DX003 (ip), vehicle: saline with Tween-80) 108 % of control; under setting [6], 200 % of control. Also, the T/C runs as follows: under setting [5], 112 % of control; (dose: 512.0 mg/kg/injection, schedule: Q01DX009 (ip), vehicle: Klucel (hydroxypropylcellulose) (HPC)) 195 % of control.

For the compound `CC1(C)N=C(N)N=C(N)N1c1cccc(Br)c1`, the T/C (dose: 2.7 mg/kg/injection, schedule: Q04DX003 (ip), vehicle: saline) was 100 % of control; the T/C (dose: 4.0 mg/kg/injection, schedule: Q04DX003 (ip), vehicle: saline) is 90 % of control; the T/C (dose: 33.0 mg/kg/injection, schedule: Q04DX003 (ip), vehicle: saline) was 168 % of control; the T/C (dose: 50.0 mg/kg/injection, schedule: Q04DX003 (ip), vehicle: saline) was 177 % of control and 179 % of control; the T/C (dose: 75.0 mg/kg/injection, schedule: Q04DX003 (ip), vehicle: saline) was 90 % of control.

In the case of `CCNC(=S)N/N=C\C=N/NC(=S)NCC`, the T/C runs as follows: (dose: 75.0 mg/kg/injection, schedule: Q01DX009 (ip), vehicle: saline with Tween-80) 90 % of control; (dose: 300.0 mg/kg/injection, schedule: Q01DX009 (ip), vehicle: saline with Tween-80) 91 % of control.

For `COc1ccc2c(c1OC)CN1CCc3cc4c(cc3C1=C2)OCO4`, the T/C runs as follows: (dose: 50.0 mg/kg/injection, schedule: Q01DX005 (ip), vehicle: saline with Tween-80) 102 % of control; (dose: 100.0 mg/kg/injection, schedule: Q01DX005 (ip), vehicle: saline with Tween-80) 90 % of control; (dose: 200.0 mg/kg/injection, schedule: Q01DX005 (ip), vehicle: saline with Tween-80) 91 % of control.

Take `CCCCCCCCCCNC1CC(OC2CC(O)(C(C)=O)Cc3c(O)c4c(c(O)c32)C(=O)c2c(OC)cccc2C4=O)OC(C)C1O` (centres undefined): the T/C was 108 % of control (dose: 3.13 mg/kg/injection, schedule: Q01DX009 (ip), vehicle: water) and 103 % of control (dose: 6.25 mg/kg/injection, schedule: Q01DX009 (ip), vehicle: water).

Turning to `N#CC(O)Cc1ccccc1` (centres undefined), the T/C runs as follows: (dose: 2.5 mg/kg/injection, schedule: Q01DX009 (ip), vehicle: other) 100 % of control; (dose: 5.0 mg/kg/injection, schedule: Q01DX009 (ip), vehicle: other) 100 % of control; (dose: 10.0 mg/kg/injection, schedule: Q01DX009 (ip), vehicle: other) 100 % of control.

Regarding `COc1cc(Nc2nc(N)ncc2N)cc(OC)c1OC`, the T/C by setting is: under setting [1], 91 % of control; (dose: 200.0 mg/kg/injection, schedule: Q01DX001 (ip), vehicle: saline with Tween-80) 91 % of control; (dose: 400.0 mg/kg/injection, schedule: Q01DX001 (ip), vehicle: saline with Tween-80) 100 % of control.

In the case of `CC1CCCC(NC(=O)N(CCCl)N=O)C1` (centres undefined), the T/C (dose: 0.25 mg/kg/injection, schedule: Q04DX003 (ip), vehicle: saline with Tween-80) was 115 % of control; the T/C (dose: 0.5 mg/kg/injection, schedule: Q04DX003 (ip), vehicle: saline with Tween-80) was 100 % of control; the T/C (dose: 1.0 mg/kg/injection, schedule: Q04DX003 (ip), vehicle: saline with Tween-80) is 95 % of control; the T/C (dose: 16.5 mg/kg/injection, schedule: Q04DX003 (ip), vehicle: saline with Tween-80) is 240 % of control; the T/C (dose: 25.0 mg/kg/injection, schedule: Q04DX003 (ip), vehicle: saline with Tween-80) is 259 % of control; the T/C (dose: 37.5 mg/kg/injection, schedule: Q04DX003 (ip), vehicle: saline with Tween-80) is 272 % of control. In addition, the T/C under setting [4] was 177 % of control.

Turning to `CN1C(=O)CN=C(c2ccc[nH]2)c2cc(Cl)ccc21` (tested in a mixture with another compound), the T/C is 104 % of control (dose: 50.0 mg/kg/injection, schedule: Q01DX009 (ip), vehicle: Klucel (hydroxypropylcellulose) (HPC)); 109 % of control (dose: 100.0 mg/kg/injection, schedule: Q01DX009 (ip), vehicle: Klucel (hydroxypropylcellulose) (HPC)); 100 % of control (dose: 100.0 mg/kg/injection, schedule: Q04DX003 (ip), vehicle: Klucel (hydroxypropylcellulose) (HPC)); 100 % of control (dose: 200.0 mg/kg/injection, schedule: Q01DX009 (ip), vehicle: Klucel (hydroxypropylcellulose) (HPC)); 104 % of control (dose: 200.0 mg/kg/injection, schedule: Q04DX003 (ip), vehicle: Klucel (hydroxypropylcellulose) (HPC)); 90 % of control (dose: 400.0 mg/kg/injection, schedule: Q04DX003 (ip), vehicle: Klucel (hydroxypropylcellulose) (HPC)).

On to `c1cc2c(c(CC3CO3)c1CC1CO1)OCCOCCOCCOCCO2` (centres undefined), for which the T/C is 98 % of control and 105 % of control (dose: 6.0 mg/kg/injection, schedule: Q01DX009 (ip), vehicle: saline + alcohol); 108 % of control (dose: 12.0 mg/kg/injection, schedule: Q01DX009 (ip), vehicle: saline + alcohol); 113 % of control (dose: 24.0 mg/kg/injection, schedule: Q01DX009 (ip), vehicle: saline + alcohol).

As to `COc1cc2c(cc1OC)-c1c3c(cc4c1[C@H](C2)N(C)CC4)OCO3`, the T/C was 97 % of control (dose: 37.5 mg/kg/injection, schedule: Q01DX009 (ip), vehicle: Klucel (hydroxypropylcellulose) (HPC)); 98 % of control (dose: 75.0 mg/kg/injection, schedule: Q01DX009 (ip), vehicle: Klucel (hydroxypropylcellulose) (HPC)); 98 % of control (dose: 150.0 mg/kg/injection, schedule: Q01DX009 (ip), vehicle: Klucel (hydroxypropylcellulose) (HPC)).
